Source: patent US20210128730A1, “METHODS FOR TREATING TUMORS” (NH THERAGUIX, priority 2017, published 2021)
Residues, ends and D or L forms follow the SMILES beside them. *: point of attachment. Cbz = O=C(OCc1ccccc1)*; CH2F = FC*

Assays:
Format in all cases: cell-based, human
ROCK1 = ROCK1 activation by immunoblot of MLC2 serine 19 phosphorylation (MLC2S19*); details: 30 μM Y27632, 24 hours; XR- or GdBN+XR-treated HCT116
Protocol: Total cell lysates were prepared in lysis buffer (0,1% NP40 ; 200 mM HEPES ; 100 mM KCl; 1 mM EDTA; 1% Glycerol final concentration) supplemented with proteases and phosphatases inhibitors cocktail (EDTA-free inhibitors, Roche-diagnostics, Meylan, France). Protein extracts were quantified using the Bradford assay (Bio-Rad Laboratories, Hercules, Calif., USA). Protein extracts (20-40 μg) were run onto 4-12% NuPAGE Bis-tris gel (Invitrogen) and transferred onto nitrocellulose membrane at 4° C.

HCT116 cells [1] = test: Cellular cannibalism (cell engulfment) in CMTMR/CMFDA co-culture, confocal microscopy
Protocol: (§1) HCT116 cells were seeded in 6-well plates and incubated at 37° C. during 1 hour with indicated concentrations of GdBN. Then, cells were irradiated with X-ray irradiator (1 Gy/min, 200 keV, 15 mA, 2 mm copper thickness, X-RAD 320, Precision X-Ray) or with gamma-ray irradiator (IBL-637, Cs^137, 1 Gy/min, gamma CIS-BioInternational, IBA, Saclay, France). Cells were harvested at indicated time points after irradiation for subsequent experiments. Cellular cannibalism was determined as previously described^13. […] Cells are then co-cultured for the indicated time, in presence of the pharmacological inhibitor of ROCK, Y27632 (30 μM, TOCRIS) or the pan-caspase inhibitor, zVAD-fmk (100 μM, Calbiochem). […] Cells were counterstained with Hoechst 33342 (Invitrogen) and analyzed by fluorescent confocal microscopy on a Zeiss LSM510 or by fluorescent microscopy on a LEICA DMi8 using a 63× objective. […] Cytofluorometric determinations were carried out on Guava EasyCyte (Millipore EMD) and data were analyzed by means with Incyte software (Millipore). Cell cycle distributions were assessed with 10 μg/ml of Hoechst 33342 (Invitrogen), as previously described^14. Cell fluorescence was quantified using LSR II™ flow cytometer (Becton-Dickinson). Fluorescence histograms were analyzed with Kaluza software version 1.5. […]

p21 = p21 expression by fluorescence microscopy and immunoblot; details: HCT116 treated with XR alone or GdBN+XR
Protocol: as §1

HCT116 cells [2] = test: Engulfed (target) cell degradation: chromatin condensation and nuclear fragmentation by fluorescence microscopy; details: 100 μM Z-VAD-fmk; XR or GdBN+XR
Protocol: Cellular cannibalism was determined as previously described^13. Briefly, treated cells were stained with 10 μM of 5-(and-6)-(((4-Chloromethyl)Benzoyl)Amino)Tetramethylrhodamine (Cell Tracker Orange CMTMR, Invitrogen) and untreated cells were stained with 10 μM of 5-chloromethylfluorescein diacetate (Cell tracker Green CMFDA, Invitrogen). Cells are then co-cultured for the indicated time, in presence of the pharmacological inhibitor of ROCK, Y27632 (30 μM, TOCRIS) or the pan-caspase inhibitor, zVAD-fmk (100 μM, Calbiochem). […] Cells were counterstained with Hoechst 33342 (Invitrogen) and analyzed by fluorescent confocal microscopy on a Zeiss LSM510 or by fluorescent microscopy on a LEICA DMi8 using a 63× objective. […] Cytofluorometric determinations were carried out on Guava EasyCyte (Millipore EMD) and data were analyzed by means with Incyte software (Millipore). Cell cycle distributions were assessed with 10 μg/ml of Hoechst 33342 (Invitrogen), as previously described^14. Cell fluorescence was quantified using LSR II™ flow cytometer (Becton-Dickinson). Fluorescence histograms were analyzed with Kaluza software version 1.5. […]

`C[C@@H](N)[C@H]1CC[C@H](C(=O)Nc2ccncc2)CC1` [Y27632] was tested, and the “inhibition of ROCK1 (MLC2S19* immunoblot)” value (ROCK1) was “inhibition of ROCK1” and the “effect on cellular cannibalism” value (HCT116 cells [1]; 30 μM Y27632, after 6 Gy alone and after 6 Gy with 1.2 mM GdBN, 24 hours co-culture) was “inhibited the cellular cannibalism”.
With `CC(=O)N[C@@H](CS)C(=O)O` [NAC, N-acetylcysteine] the “effect on cellular senescence (p21 expression, immunoblot)” value (p21; 100 μM NAC) was “reduced the cellular senescence”.
With `COC(=O)C[C@H](NC(=O)[C@H](C)NC(=O)[C@@H](NC(=O)OCc1ccccc1)C(C)C)C(=O)CF` [Z-VAD-fmk, benzyloxycarboxyl-Val-Ala-Asp (OMe) fluoromethylketone] (Cbz-Val-Ala-Asp(OMe)-CH2F) the “effect on target cell degradation” value (HCT116 cells [2]) was “failed to repress target cell degradation” and the “effect on cellular engulfment” value (HCT116 cells [1]; 100 μM Z-VAD-fmk, after XR or GdBN+XR, 24 h culture) was “not inhibited”.
In the case of `O=C(O)c1ccc(-c2c3nc(c(-c4ccc(C(=O)O)cc4)c4ccc([n-]4)c(-c4ccc(C(=O)O)cc4)c4nc(c(-c5ccc(C(=O)O)cc5)c5ccc2[n-]5)C=C4)C=C3)cc1.[Mn+3]` [MnTBAP, Manganese (III)-tetrakis(4-benzoic acid) porphyrin], the “effect on cellular senescence (p21 expression, immunoblot)” value (p21; 10 μM MnTBAP) is reported as “reduced the cellular senescence”.
